Assays:
Test in all cases: relative viability (nuclei count vs DMSO), 5 days (fraction); higher = more cells survive
[1] = compound: Nc1ncn([C@H]2C[C@H](O)[C@@H](CO)O2)c(=O)n1 [Decitabine] + Cc1cc(Nc2cc(N3CCN(C)CC3)nc(Sc3ccc(NC(=O)C4CC4)cc3)n2)n[nH]1 [Tozasertib] (partner 0.1 µM)
Outline: (§1)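 Nuclei were stained with Hoechst during a one-step fixation (final 0.05% Triton X-100, 1% formaldehyde, 1 ug/ml Hoechst) carried out 5 days after dosing, then counted on 4× images. The cells, lung cancer lines in 1536-well plates, had been dosed by pin tool the day after seeding with one drug alone or a fixed anchor-drug dose plus five library-drug doses (not always all listed) in √10 steps. Relative viability is the nuclei count in treated wells divided by that in vehicle wells, and each value is the median of duplicate plates.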

[2] = compound: O=C(C[C@H]1NCCC[C@@H]1O)Cn1cnc2cc(Br)c(Cl)cc2c1=O (racemic) [Halofuginone] + Cc1nc(NC(=O)N2CCC[C@H]2C(N)=O)sc1-c1ccnc(C(C)(C)C(F)(F)F)c1 [Alpelisib] (partner 2 µM)
Outline: as §1

[3] = compound: O=C(C[C@H]1NCCC[C@@H]1O)Cn1cnc2cc(Br)c(Cl)cc2c1=O (racemic) [Halofuginone] + CC(=O)Nc1cccc(-n2c(=O)n(C3CC3)c(=O)c3c(Nc4ccc(I)cc4F)n(C)c(=O)c(C)c32)c1 [Trametinib] (partner 0.02 µM)
Outline: as §1

[4] = compound: O=C(C[C@H]1NCCC[C@@H]1O)Cn1cnc2cc(Br)c(Cl)cc2c1=O (racemic) [Halofuginone] + CC1(C)CCC(c2ccc(Cl)cc2)=C(CN2CCN(c3ccc(C(=O)NS(=O)(=O)c4ccc(N[C@H](CCN5CCOCC5)CSc5ccccc5)c(S(=O)(=O)C(F)(F)F)c4)cc3)CC2)C1 [Navitoclax] (partner 0.5 µM)
Outline: as §1

HCC-15
relative viability ([1]; first compound 0.04 µM): 0.308
relative viability ([1]; first compound 0.1265 µM): 0.388
relative viability ([1]; first compound 0.4 µM): 0.345
relative viability ([1]; first compound 1.265 µM): 0.213
relative viability ([1]; first compound 4 µM): 0.175
relative viability ([2]; first compound 0.001 µM): 0.847
relative viability ([2]; first compound 0.003162 µM): 0.903
relative viability ([2]; first compound 0.01 µM): 0.861
relative viability ([2]; first compound 0.03162 µM): 0.888
relative viability ([2]; first compound 0.1 µM): 0.683
relative viability ([3]; first compound 0.001 µM): 0.415
relative viability ([3]; first compound 0.003162 µM): 0.412
relative viability ([3]; first compound 0.01 µM): 0.399
relative viability ([3]; first compound 0.03162 µM): 0.368
relative viability ([3]; first compound 0.1 µM): 0.31
relative viability ([4]; first compound 0.001 µM): 0.704
relative viability ([4]; first compound 0.003162 µM): 0.732
relative viability ([4]; first compound 0.01 µM): 0.686
relative viability ([4]; first compound 0.03162 µM): 0.651
relative viability ([4]; first compound 0.1 µM): 0.593

EMC-BAC-2
relative viability ([1]; first compound 0.04 µM): 0.274
relative viability ([1]; first compound 0.1265 µM): 0.266
relative viability ([1]; first compound 0.4 µM): 0.27
relative viability ([1]; first compound 1.265 µM): 0.251
relative viability ([1]; first compound 4 µM): 0.271
relative viability ([2]; first compound 0.001 µM): 0.765
relative viability ([2]; first compound 0.003162 µM): 0.761
relative viability ([2]; first compound 0.01 µM): 0.766
relative viability ([2]; first compound 0.03162 µM): 0.723
relative viability ([2]; first compound 0.1 µM): 0.517
relative viability ([3]; first compound 0.001 µM): 1.02
relative viability ([3]; first compound 0.003162 µM): 0.913
relative viability ([3]; first compound 0.01 µM): 0.83
relative viability ([3]; first compound 0.03162 µM): 0.85
relative viability ([3]; first compound 0.1 µM): 0.321
relative viability ([4]; first compound 0.001 µM): 1.14
relative viability ([4]; first compound 0.003162 µM): 1.29
relative viability ([4]; first compound 0.01 µM): 1.14
relative viability ([4]; first compound 0.03162 µM): 1.13
relative viability ([4]; first compound 0.1 µM): 0.87

NCI-H1734
relative viability ([1]; first compound 0.04 µM): 0.265
relative viability ([1]; first compound 0.1265 µM): 0.246
relative viability ([1]; first compound 0.4 µM): 0.221
relative viability ([1]; first compound 1.265 µM): 0.206
relative viability ([1]; first compound 4 µM): 0.192
relative viability ([2]; first compound 0.001 µM): 0.685
relative viability ([2]; first compound 0.003162 µM): 0.679
relative viability ([2]; first compound 0.01 µM): 0.674
relative viability ([2]; first compound 0.03162 µM): 0.612
relative viability ([2]; first compound 0.1 µM): 0.452
relative viability ([3]; first compound 0.001 µM): 0.68
relative viability ([3]; first compound 0.003162 µM): 0.721
relative viability ([3]; first compound 0.01 µM): 0.733
relative viability ([3]; first compound 0.03162 µM): 0.602
relative viability ([3]; first compound 0.1 µM): 0.171
relative viability ([4]; first compound 0.001 µM): 0.825
relative viability ([4]; first compound 0.003162 µM): 0.961
relative viability ([4]; first compound 0.01 µM): 0.799
relative viability ([4]; first compound 0.03162 µM): 0.762
relative viability ([4]; first compound 0.1 µM): 0.378

NCI-H1395
relative viability ([1]; first compound 0.04 µM): 0.549
relative viability ([1]; first compound 0.1265 µM): 0.517
relative viability ([1]; first compound 0.4 µM): 0.487
relative viability ([1]; first compound 1.265 µM): 0.445
relative viability ([1]; first compound 4 µM): 0.453
relative viability ([2]; first compound 0.001 µM): 1.06
relative viability ([2]; first compound 0.003162 µM): 1.03
relative viability ([2]; first compound 0.01 µM): 1.01
relative viability ([2]; first compound 0.03162 µM): 0.866
relative viability ([2]; first compound 0.1 µM): 0.608
relative viability ([3]; first compound 0.001 µM): 0.95
relative viability ([3]; first compound 0.003162 µM): 1.03
relative viability ([3]; first compound 0.01 µM): 0.912
relative viability ([3]; first compound 0.03162 µM): 0.889
relative viability ([3]; first compound 0.1 µM): 0.746
relative viability ([4]; first compound 0.001 µM): 1.15
relative viability ([4]; first compound 0.003162 µM): 1.44
relative viability ([4]; first compound 0.01 µM): 1.07
relative viability ([4]; first compound 0.03162 µM): 1.16
relative viability ([4]; first compound 0.1 µM): 1.26

HOP-62
relative viability ([1]; first compound 0.04 µM): 0.226
relative viability ([1]; first compound 0.1265 µM): 0.229
relative viability ([1]; first compound 0.4 µM): 0.141
relative viability ([1]; first compound 1.265 µM): 0.108
relative viability ([1]; first compound 4 µM): 0.104
relative viability ([2]; first compound 0.001 µM): 0.992
relative viability ([2]; first compound 0.003162 µM): 1.03
relative viability ([2]; first compound 0.01 µM): 0.902
relative viability ([2]; first compound 0.03162 µM): 1.04
relative viability ([2]; first compound 0.1 µM): 0.423
relative viability ([3]; first compound 0.001 µM): 0.419
relative viability ([3]; first compound 0.003162 µM): 0.407
relative viability ([3]; first compound 0.01 µM): 0.383
relative viability ([3]; first compound 0.03162 µM): 0.411
relative viability ([3]; first compound 0.1 µM): 0.235
relative viability ([4]; first compound 0.001 µM): 1.14
relative viability ([4]; first compound 0.003162 µM): 0.785
relative viability ([4]; first compound 0.01 µM): 0.933
relative viability ([4]; first compound 0.03162 µM): 1.04
relative viability ([4]; first compound 0.1 µM): 0.873

LK-2
relative viability ([1]; first compound 0.04 µM): 0.168
relative viability ([1]; first compound 0.1265 µM): 0.166
relative viability ([1]; first compound 0.4 µM): 0.182
relative viability ([1]; first compound 1.265 µM): 0.155
relative viability ([1]; first compound 4 µM): 0.19
relative viability ([2]; first compound 0.001 µM): 0.949
relative viability ([2]; first compound 0.003162 µM): 1.13
relative viability ([2]; first compound 0.01 µM): 1.02
relative viability ([2]; first compound 0.03162 µM): 1.14
relative viability ([2]; first compound 0.1 µM): 0.926
relative viability ([3]; first compound 0.001 µM): 0.853
relative viability ([3]; first compound 0.003162 µM): 0.775
relative viability ([3]; first compound 0.01 µM): 0.592
relative viability ([3]; first compound 0.03162 µM): 0.823
relative viability ([3]; first compound 0.1 µM): 0.519
relative viability ([4]; first compound 0.001 µM): 0.78
relative viability ([4]; first compound 0.003162 µM): 0.979
relative viability ([4]; first compound 0.01 µM): 0.81
relative viability ([4]; first compound 0.03162 µM): 0.931
relative viability ([4]; first compound 0.1 µM): 0.603

SW 1573
relative viability ([1]; first compound 0.04 µM): 0.165
relative viability ([1]; first compound 0.1265 µM): 0.167
relative viability ([1]; first compound 0.4 µM): 0.172
relative viability ([1]; first compound 1.265 µM): 0.124
relative viability ([1]; first compound 4 µM): 0.108
relative viability ([2]; first compound 0.001 µM): 0.735
relative viability ([2]; first compound 0.003162 µM): 0.748
relative viability ([2]; first compound 0.01 µM): 0.717
relative viability ([2]; first compound 0.03162 µM): 0.645
relative viability ([2]; first compound 0.1 µM): 0.618
relative viability ([3]; first compound 0.001 µM): 0.563
relative viability ([3]; first compound 0.01 µM): 0.596
relative viability ([3]; first compound 0.03162 µM): 0.23
relative viability ([3]; first compound 0.1 µM): 0.0886
relative viability ([4]; first compound 0.001 µM): 1.03
relative viability ([4]; first compound 0.003162 µM): 1.01
relative viability ([4]; first compound 0.01 µM): 0.921
relative viability ([4]; first compound 0.03162 µM): 0.6
relative viability ([4]; first compound 0.1 µM): 0.168

SK-LU-1
relative viability ([1]; first compound 0.04 µM): 0.283
relative viability ([1]; first compound 0.1265 µM): 0.288
relative viability ([1]; first compound 0.4 µM): 0.214
relative viability ([1]; first compound 1.265 µM): 0.238
relative viability ([1]; first compound 4 µM): 0.24
relative viability ([2]; first compound 0.001 µM): 1.14
relative viability ([2]; first compound 0.003162 µM): 1.13
relative viability ([2]; first compound 0.01 µM): 1.02
relative viability ([2]; first compound 0.03162 µM): 0.888
relative viability ([2]; first compound 0.1 µM): 0.247
relative viability ([3]; first compound 0.001 µM): 0.572
relative viability ([3]; first compound 0.003162 µM): 0.504
relative viability ([3]; first compound 0.01 µM): 0.559
relative viability ([3]; first compound 0.03162 µM): 0.461
relative viability ([3]; first compound 0.1 µM): 0.321
relative viability ([4]; first compound 0.001 µM): 0.821
relative viability ([4]; first compound 0.003162 µM): 0.895
relative viability ([4]; first compound 0.01 µM): 0.874
relative viability ([4]; first compound 0.03162 µM): 1.42
relative viability ([4]; first compound 0.1 µM): 0.275

Reference: the supplement of paper PMC10307832
